Laboratory results reported in patent US11242337B2, “Compounds useful for treating gastrointestinal tract disorders” (Ardelyx, Inc., priority 2017, dated 2022).

Key:
[1] = biological target: T1, NHE3 (Homo sapiens, UniProt P48764); experiment: Cell-based assay of NHE-3 activity (pre-incubation inhibition), human; details: human Preincubation; for pIC50: 0-30 μM test compound
T1 construct: expressed in transfected cells
T1 sequence (P48764 26-834): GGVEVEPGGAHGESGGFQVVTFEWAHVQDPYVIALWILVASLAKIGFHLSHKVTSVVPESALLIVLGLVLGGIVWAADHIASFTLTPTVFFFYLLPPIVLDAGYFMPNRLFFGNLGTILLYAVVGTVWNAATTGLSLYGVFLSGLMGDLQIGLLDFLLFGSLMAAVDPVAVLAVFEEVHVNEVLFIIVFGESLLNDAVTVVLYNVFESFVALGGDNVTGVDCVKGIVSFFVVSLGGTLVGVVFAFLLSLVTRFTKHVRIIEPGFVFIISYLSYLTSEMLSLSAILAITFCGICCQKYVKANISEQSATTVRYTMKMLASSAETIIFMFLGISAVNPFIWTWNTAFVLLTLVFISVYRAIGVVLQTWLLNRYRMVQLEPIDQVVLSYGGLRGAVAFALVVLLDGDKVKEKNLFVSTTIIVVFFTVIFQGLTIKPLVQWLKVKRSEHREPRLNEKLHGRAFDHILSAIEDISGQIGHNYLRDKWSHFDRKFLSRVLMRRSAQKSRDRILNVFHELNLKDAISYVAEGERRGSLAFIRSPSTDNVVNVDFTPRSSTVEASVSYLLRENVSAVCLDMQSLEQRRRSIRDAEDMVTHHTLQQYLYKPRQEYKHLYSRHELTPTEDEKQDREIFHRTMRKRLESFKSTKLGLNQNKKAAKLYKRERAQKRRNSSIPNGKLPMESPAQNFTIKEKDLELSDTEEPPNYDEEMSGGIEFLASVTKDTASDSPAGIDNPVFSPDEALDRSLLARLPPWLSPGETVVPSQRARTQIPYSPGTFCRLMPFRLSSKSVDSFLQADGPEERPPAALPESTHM
T1 sequence (Q99653 2-195 partner limits assumed): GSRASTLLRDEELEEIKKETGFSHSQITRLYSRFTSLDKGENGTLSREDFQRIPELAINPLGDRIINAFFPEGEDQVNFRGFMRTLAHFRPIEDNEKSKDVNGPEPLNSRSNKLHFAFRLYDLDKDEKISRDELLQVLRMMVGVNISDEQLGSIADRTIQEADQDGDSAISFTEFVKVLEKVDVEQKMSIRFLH
Method in brief: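 PS120 fibroblasts stably expressing human NHE3 and NHERF2, loaded 30 min at 37 °C with 5 μM BCECF-AM in NH4Cl buffer, then acidified 10 min at room temperature in Na+-free buffer with 0–30 μM compound. Initial rate of BCECF fluorescence ratio change (FLIPR) per minute taken as Na+/H+ activity.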

[2] = biological target: T1, NHE3; experiment: Cell-based assay of NHE-3 activity (persistent inhibition), human; details: human Persistence, 60 min incubation then washout
Method in brief: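 PS120 fibroblasts expressing human NHE3 with NHERF2 exposed to 0-30 μM compound for 60 min at RT, then washed out; cells acid-loaded by NH4Cl prepulse with BCECF-AM and Na+-free buffer. Na+-driven pH recovery started 10 min post-washout; initial rate of BCECF ratio change (FLIPR) taken as activity.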

% inhibition [1] | % inhibition [2] | pIC50 [1] | pIC50 [2] | IC50 [2] [nM] | SMILES
A (NHE3 < 40%) | A (NHE3 < 40%) |  |  |  | CN(C)[C@H]1Cc2c(Cl)cc(Cl)cc2[C@@H]1Oc1ccc(S(=O)(=O)NCCCCCCCCNC(=O)NCCCCNC(=O)NCCCCCCCCNS(=O)(=O)c2ccc(O[C@H]3c4cc(Cl)cc(Cl)c4C[C@@H]3N(C)C)cc2)cc1 [Example 64, 3-[8-[(4-[[(1S,2S)-4,6-Dichloro-2-(diamethylamino)-2,3-dihydro-1H-inden-1-yl]oxy]benzene)sulfonamido]octyl]-1-[4-[([8-[(4-[[(1S,2S)-4,6-dichloro-2-(diamethylamino)-2,3-dihydro-1H-inden-1-yl]oxy]benzene)sulfonamido]octyl]carbamoyl)amino]butyl]urea; bis(trifluoroacetic acid)]
A (NHE3 < 40%) | A (NHE3 < 40%) | A (NHE3 pIC50 < 6) | A (NHE3 pIC50 < 6) |  | C[C@@H]1CCCCN1[C@H]1Cc2c(Cl)cc(Cl)cc2[C@@H]1Oc1ccc(S(=O)(=O)NCCOCCOCCNC(=O)NCCCCNC(=O)NCCOCCOCCNS(=O)(=O)c2ccc(O[C@H]3c4cc(Cl)cc(Cl)c4C[C@@H]3N3CCCC[C@H]3C)cc2)cc1 [Example 66, 3-[2-(2-[2-[(4-[[(1S,2S)-4,6-Dichloro-2-[(2R)-2-methylpiperidin-1-yl]-2,3-dihydro-1H-inden-1-yl]oxy]benzene)sulfonamido]ethoxy]ethoxy)ethyl]-1-[4-([[2-(2-[2-[(4-[[(1S,2S)-4,6-dichloro-2-[(2R)-2-methylpiperidin-1-yl]-2,3-dihydro-1H-inden-1-yl]oxy]benzene)sulfonamido]ethoxy]ethoxy)ethyl]carbamoyl]amino)butyl]urea]
A (NHE3 < 40%) | A (NHE3 < 40%) | A (NHE3 pIC50 < 6) | A (NHE3 pIC50 < 6) |  | Cc1cc(S(=O)(=O)NCCOCCOCCNC(=O)NCCCCNC(=O)NCCOCCOCCNS(=O)(=O)c2ccc(O[C@H]3c4cc(Cl)cc(F)c4C[C@@H]3N3CCC[C@@H](N)C3)c(C)c2)ccc1O[C@H]1c2cc(Cl)cc(F)c2C[C@@H]1N1CCC[C@@H](N)C1 [Example 6]
A (NHE3 < 40%) | A (NHE3 < 40%) |  |  |  | Cc1cc(S(=O)(=O)NCCCCCCCCNC(=O)NCCCCNC(=O)NCCCCCCCCNS(=O)(=O)c2ccc(O[C@H]3c4cc(Cl)cc(Cl)c4C[C@@H]3N(C)C)c(C)c2)ccc1O[C@H]1c2cc(Cl)cc(Cl)c2C[C@@H]1N(C)C [Example 65, 3-[8-[(4-[[(1S,2S)-4,6-Dichloro-2-(dimethylamino)-2,3-dihydro-1H-inden-1-yl]oxy]-3-methylbenzene)sulfonamido]octyl]-1-[4-[([8-[(4-[[(1S,2S)-4,6-dichloro-2-(dimethylamino)-2,3-dihydro-1H-inden-1-yl]oxy]-3-methylbenzene)sulfonamido]octyl]carbamoyl)amino]butyl]urea]
B (40-70%) | C (>70%) | C (NHE3 pIC50 > 7) |  | 100 to 1000 | Cc1cc(S(=O)(=O)NCCOCCOCCNC(=O)NCCCCNC(=O)NCCOCCOCCNS(=O)(=O)c2cc(C)c(O[C@H]3c4cc(Cl)cc(Cl)c4C[C@@H]3N(C)C)cc2C)c(C)cc1O[C@H]1c2cc(Cl)cc(Cl)c2C[C@@H]1N(C)C [Example 82, 3-[2-(2-[2-[(4-[[(1S,2S)-4,6-Dichloro-2-(dimethylamino)-2,3-dihydro-1H-inden-1-yl]oxy]-2,5-dimethylbenzene)sulfonamido]ethoxy]ethoxy)ethyl]-[4-([[2-(2-[2-[(4-[[(1S,2S)-4,6-dichloro-2-(dimethylamino)-2,3-dihydro-1H-inden-1-yl]oxy]-2,5-dimethylbenzene)sulfonamido]ethoxy]ethoxy)ethyl]carbamoyl]amino)butyl]urea]
C (>70%) | C (>70%) | C (NHE3 pIC50 > 7) | C (NHE3 pIC50 > 7) |  | N[C@@H]1CCCN([C@H]2Cc3c(Cl)cc(Cl)cc3[C@@H]2Oc2ccc(S(=O)(=O)NCCOCCOCCNC(=O)NCCCCNC(=O)NCCOCCOCCNS(=O)(=O)c3ccc(O[C@H]4c5cc(Cl)cc(Cl)c5C[C@@H]4N4CCC[C@@H](N)C4)cc3F)c(F)c2)C1 [Example 103, 1-[2-(2-[2-[(4-[[(1S,2S)-2-[(3R)-3-Aminopiperidin-1-yl]-4,6-dichloro-2,3-dihydro-1H-inden-1-yl]oxy]-2-fluorobenzene)sulfonamido]ethoxy]ethoxy)ethyl]-3-[4-([[2-(2-[2-[(4-[[(1S,2S)-2-[(3R)-3-aminopiperidin-1-yl]-4,6-dichloro-2,3-dihydro-1H-inden-1-yl]oxy]-2-fluorobenzene)sulfonamido]ethoxy]ethoxy)ethyl]carbamoyl]amino)butyl]urea]
C (>70%) | C (>70%) |  |  |  | N[C@@H]1CCCN([C@H]2Cc3c(Cl)cc(Cl)cc3[C@@H]2Oc2c(F)cc(S(=O)(=O)NCCOCCOCCNC(=O)NCCCCNC(=O)NCCOCCOCCNS(=O)(=O)c3cc(F)c(O[C@H]4c5cc(Cl)cc(Cl)c5C[C@@H]4N4CCC[C@@H](N)C4)c(F)c3)cc2F)C1 [Example 85, 3-[2-(2-[2-[(4-[[(1S,2S)-2-[(3R)-3-Aminopiperidin-1-yl]-4,6-dichloro-2,3-dihydro-1H-1-inden-1-yl]oxy]-3,5-difluorobenzene)sulfonamido]ethoxy]ethoxy)ethyl]-1-[4-([[2-(2-[2-[(4-[[(1S,2S)-2-[(3R)-3-aminopiperidin-1-yl]-4,6-dichloro-2,3-dihydro-1H-inden-1-yl]oxy]-3,5-difluorobenzene)sulfonamido]ethoxy]ethoxy)ethyl]carbamoyl]amino)butyl]urea; bis(trifluoroacetic acid)]
C (>70%) | C (>70%) |  |  |  | N[C@@H]1CCCN([C@H]2Cc3c(Cl)cc(Cl)cc3[C@@H]2Oc2ccc(S(=O)(=O)NCCCCCCn3cc(CNC(=O)NCCCCNC(=O)NCc4cn(CCCCCCNS(=O)(=O)c5ccc(O[C@H]6c7cc(Cl)cc(Cl)c7C[C@@H]6N6CCC[C@@H](N)C6)cc5)nn4)nn3)cc2)C1 [Example 59, 3-[(1-[6-[(4-[[(1S,2S)-2-[(3R)-3-Aminopiperidin-1-yl]-4,6-dichloro-2,3-dihydro-1H-inden-1-yl]oxy]benzene)sulfonamido]-hexyl]-1H-1,2,3-triazol-4-yl)methyl]-1-[4-([[(1-[6-[(4-[[(1S,2S)-2-[(3R)-3-aminopiperidin-1-yl]-4,6-dichloro-2,3-dihydro-1H-inden-1-yl]oxy]benzene)sulfonamido]hexyl]-1H-1,2,3-triazol-4-yl)methyl]carbamoyl]amino)butyl]urea]
C (>70%) | C (>70%) | C (NHE3 pIC50 > 7) |  | 100 to 1000 | O=C(NCCCCNC(=O)NCCOCCOCCNS(=O)(=O)c1ccc(O[C@H]2c3cc(Cl)cc(Cl)c3C[C@@H]2N2CC3CCC2CC3)cc1)NCCOCCOCCNS(=O)(=O)c1ccc(O[C@H]2c3cc(Cl)cc(Cl)c3C[C@@H]2N2CC3CCC2CC3)cc1 [Example 69, 1-[2-(2-[2-[(4-[[(1S,2S)-2-[2-Azabicyclo[2.2.2]octan-2-yl]-4,6-dichloro-2,3-dihydro-1H-inden-1-yl]oxy]benzene)sulfonamido]ethoxy]ethoxy)ethyl]-3-[4-([[2-(2-[2-[(4-[[(1S,2S)-2-[2-azabicyclo[2.2.2]octan-2-yl]-4,6-dichloro-2,3-dihydro-1H-inden-1-yl]oxy]benzene)sulfonamido]ethoxy]ethoxy)ethyl]carbamoyl]amino)butyl]urea]
C (>70%) | C (>70%) |  |  |  | Cc1cc(S(=O)(=O)N2CC[C@@H](COCCOCCNC(=O)NCCCCNC(=O)NCCOCCOC[C@@H]3CCN(S(=O)(=O)c4ccc(O[C@H]5c6cc(Cl)cc(C#N)c6C[C@@H]5N(C)C)c(C)c4)C3)C2)ccc1O[C@H]1c2cc(Cl)cc(C#N)c2C[C@@H]1N(C)C [Example 47]
